Measured values reported in US20230271959A1, “HETEROCYCLIC COMPOUND AS BCL-2 INHIBITOR” (Beijing Innocare Pharma Tech Co., Ltd., priority 2020, published 2023).

Key:
[1] = target: T1, human recombinant Bcl-2 protein (Homo sapiens, UniProt P10415); experiment: Fluorescence polarization test for inhibition of BCL-2 binding to FITC-BIM; conditions: 5 nM BCL-2, 5 nM FITC-BIM, read-out: FP BCL-2 IC50
T1 construct: purchased Beijing Yigiao Shenzhou Biotechnology Co., Ltd. 10195-HOSE
In short: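 FP competition: compound preincubated 15 min with recombinant human Bcl-2 (diluted to 5 nM), then FITC-BIM (diluted to 5 nM) added for 30 min at room temperature in PBS pH 7.4 with 1 mM DTT. Polarization read at 480/535 nm; IC50 from 8-point 4-fold series fitted by four-parameter equation.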

[2] = target: T2, human recombinant Bcl-XL protein (Homo sapiens, UniProt Q07817); experiment: Fluorescence polarization test for inhibition of BCL-XL binding to FITC-BIM; conditions: 10 nM BCL-XL, 10 nM FITC-BIM, read-out: FP BCL-XL IC50
T2 construct: purchased Beijing Yiqiao Shenzhou Biotechnology Co., Ltd. 10455-H0SE
In short: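 Human recombinant Bcl-XL (10 nM diluted stock) preincubated with compound 15 min at RT in PBS pH 7.4, 1 mM DTT, then FITC-BIM peptide (10 nM diluted stock) added for 30 min in dark. FP read at ex 480/em 535 nm; no-protein wells = 100% inhibition; IC50 from 8-point 4-fold dilution curve fit.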

[3] = tested on: RS4;11 cells (acute lymphoblastic leukemia cells); experiment: RS4;11 cell proliferation, CellTilter-Glo luminescence cell viability assay; assay type: cell-based; conditions: Homo sapiens, RS4-11; CTG readout after 48 hours
In short: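 RS4;11 cells plated overnight were exposed for 48 h at 37 °C, 5% CO2 to an 8-point, 4-fold compound dilution series; the vehicle control contained 0.2% DMSO. Viability was read by CellTiter-Glo luminescence. Percent inhibition was referenced to no-cell and DMSO controls, and IC50 came from a four-parameter sigmoidal fit.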

[4] = tested on: patients with relapsed or refractory lymphoid malignancies; conditions: cited from earlier work
[5] = tested on: chronic lymphocytic leukemia (CLL) patients; conditions: clinical; cited from earlier work
[6] = tested on: relapsed/refractory CLL, MCL, MM; conditions: clinical; cited from earlier work

T1 sequence (P10415 whole entry): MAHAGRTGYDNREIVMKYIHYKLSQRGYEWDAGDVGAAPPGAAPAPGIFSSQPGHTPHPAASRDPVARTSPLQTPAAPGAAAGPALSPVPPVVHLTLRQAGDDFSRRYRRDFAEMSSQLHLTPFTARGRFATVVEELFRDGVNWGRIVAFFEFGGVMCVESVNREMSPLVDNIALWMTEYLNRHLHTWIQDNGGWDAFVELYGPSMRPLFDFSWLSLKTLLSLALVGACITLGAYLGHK
T2 sequence (Q07817 whole entry): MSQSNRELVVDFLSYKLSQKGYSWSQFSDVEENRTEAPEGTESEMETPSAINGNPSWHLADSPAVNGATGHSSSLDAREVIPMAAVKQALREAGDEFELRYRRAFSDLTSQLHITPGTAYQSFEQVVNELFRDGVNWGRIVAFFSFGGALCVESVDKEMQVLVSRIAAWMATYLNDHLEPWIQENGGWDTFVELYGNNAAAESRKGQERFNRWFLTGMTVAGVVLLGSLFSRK

IC50 [1] [nM] | IC50 [2] [nM] | IC50 [3] [nM] | Compound | response ([4]; Phase I dose escalation) [%] | targeted toxicity ([4]; thrombocytopenia and severe anemia) | neurotoxicity [5] | toxic side effects [6]
> 100 | > 1000 | > 500 | C[C@H]1CN(c2ccc(C(=O)NS(=O)(=O)c3ccc(NC[C@@H]4COCCO4)c([N+](=O)[O-])c3)c(Oc3cnc4[nH]ccc4c3)c2)CCN1CC1=C(c2ccc(Cl)cc2)CC(C)(C)CC1 [Example 51, N-((4-((((R)-1,4-dioxan-2-yl)methyl)amino)-3-nitrophenyl)sulfonyl)-2-((1H-pyrrolo[2,3-b]pyridin-5-yl)oxy)-4-((S)-4-((4′-chloro-5,5-dimethyl-3,4,5,6-tetrahydro-[1,1′-biphenyl]-2-yl)methyl)-3-methylpiperazin-1-yl) benzamide] | – | – | – | –
1.9 | > 1000 | 5.1 | C[C@@H]1CN(c2ccc(C(=O)NS(=O)(=O)c3ccc(NC[C@@H]4COCCO4)c([N+](=O)[O-])c3)c(Oc3cnc4[nH]ccc4c3)c2)CCN1CC1=C(c2ccc(Cl)cc2)CC(C)(C)CC1 [Example 52, N-((4-((((R)-1,4-dioxan-2-yl)methyl)amino)-3-nitrophenyl)sulfonyl)-2-((1H-pyrrolo [2,3-b]pyridin-5-yl)oxy)-4-((R)-4-((4′-chloro-5,5-dimethyl-3,4,5,6-tetrahydro-[1,1′-biphenyl]-2-yl)methyl)-3-methylpiperazin-1-yl) benzamide] | – | – | – | –
> 100 | > 1000 | > 500 | C[C@H]1CN(c2ccc(C(=O)NS(=O)(=O)c3ccc(NC[C@@H]4COCCO4)c([N+](=O)[O-])c3)c(Oc3cnc4[nH]ccc4c3)c2)CCN1CC1=C(c2ccc(Cl)cc2)CCC(C)(C)C1 [Example 53, N-((4-((((R)-1,4-dioxan-2-yl)methyl)amino)-3-nitrophenyl)sulfonyl)-2-((1H-pyrrolo[2,3-b]pyridin-5-yl)oxy)-4-((S)-4-((4′-chloro-4,4-dimethyl-3,4,5,6-tetrahydro-[1,1′-biphenyl]-2-yl)methyl)-3-methylpiperazin-1-yl)benzamide] | – | – | – | –
11 | > 1000 | 25 | C[C@@H]1CN(c2ccc(C(=O)NS(=O)(=O)c3ccc(NC[C@@H]4COCCO4)c([N+](=O)[O-])c3)c(Oc3cnc4[nH]ccc4c3)c2)CCN1CC1=C(c2ccc(Cl)cc2)CCC(C)(C)C1 [Example 54, N-((4-((((R)-1,4-dioxan-2-yl)methyl)amino)-3-nitrophenyl)sulfonyl)-2-((1H-pyrrolo[2,3-b]pyridin-5-yl)oxy)-4-((R)-4-((4′-chloro-4,4-dimethyl-3,4,5,6-tetrahydro-[1,1′-biphenyl]-2-yl)methyl)-3-methylpiperazin-1-yl)benzamide] | – | – | – | –
2.3 | > 1000 | 5.7 | C[C@@H]1CN(c2ccc(C(=O)NS(=O)(=O)c3cc(F)c(NC[C@@H]4COCCO4)c([N+](=O)[O-])c3)c(Oc3cnc4[nH]ccc4c3)c2)CCN1CC1=C(c2ccc(Cl)cc2)CC(C)(C)CC1 [Example 55, N-((4-((((R)-1,4-dioxan-2-yl)methyl)amino)-3-fluoro-5-nitrophenyl)sulfonyl)-2-((1H-pyrrolo[2,3-b]pyridin-5-yl)oxy)-4-((R)-4-((4′-chloro-5,5-dimethyl-3,4,5,6-tetrahydro-[1,1′-biphenyl]-2-yl)methyl)-3-methylpiperazin-1-yl)benzamide] | – | – | – | –
82 | > 1000 | 224 | C[C@H]1CN(c2ccc(C(=O)NS(=O)(=O)c3cc(F)c(NC[C@@H]4COCCO4)c([N+](=O)[O-])c3)c(Oc3cnc4[nH]ccc4c3)c2)CCN1CC1=C(c2ccc(Cl)cc2)CC(C)(C)CC1 [Example 56, N-((4-((((R)-1,4-dioxan-2-yl)methyl)amino)-3-fluoro-5-nitrophenyl)sulfonyl)-2-((1H-pyrrolo[2,3-b]pyridin-5-yl)oxy)-4-((S)-4-((4′-chloro-5,5-dimethyl-3,4,5,6-tetrahydro-[1,1′-biphenyl]-2-yl)methyl)-3-methylpiperazin-1-yl) benzamide] | – | – | – | –
> 500 | > 1000 | > 1000 | CC1(C)CCC(CN2CCN(c3ccc(C(=O)NS(=O)(=O)c4ccc(NCC5CCOCC5)c([N+](=O)[O-])c4)c(Oc4cnc5[nH]ccc5c4)c3)[C@@H]3CCCC[C@H]32)=C(c2ccc(Cl)cc2)C1 [Example 57] | – | – | – | –
29.9 | > 1000 | 142 | C[C@@H]1CN(c2ccc(C(=O)NS(=O)(=O)c3ccc(NCC4CCOCC4)c([N+](=O)[O-])c3)c(Oc3cnc4[nH]ccc4c3)c2)[C@H](C)CN1CC1=C(c2ccc(Cl)cc2)CC(C)(C)CC1 [Example 58, 2-((1H-Pyrrolo[2,3-b]pyridin-5-yl)oxy)-4-((2R,5R)-4-((4′-chloro-5,5-dimethyl-3,4,5,6-tetrahydro-[1,1′-biphenyl]-2-yl)methyl)-2,5-dimethylpiperazin-1-yl)-N-((3-nitro-4-(((tetrahydro-2H-pyran-4-yl)methyl)amino)phenyl)sulfonyl)benzamide] | – | – | – | –
73.2 | > 1000 | 193 | C[C@@H]1CN(c2ccc(C(=O)NS(=O)(=O)c3ccc(NC[C@H]4COCCO4)c([N+](=O)[O-])c3)c(Oc3cnc4[nH]ccc4c3)c2)C[C@@H](C)N1CC1=C(c2ccc(Cl)cc2)CC(C)(C)CC1 [Example 59, N-((4-((((S)-1,4-Dioxan-2-yl)menthyl)amino)-3-nitrophenyl)sulfonyl)-2-((1H-pyrrolo[2,3-b]pyridin-5-yl)oxy)-4-((3R,5R)-4-((4′-chloro-5,5-dimethyl-3,4,5,6-tetrahydro-[1,1′-biphenyl]-2-yl)methyl)-3,5-dimethylpiperazin-1-yl)benzamide] | – | – | – | –
– | – | – | CC1(C)CCC(c2ccc(Cl)cc2)=C(CN2CCN(c3ccc(C(=O)NS(=O)(=O)c4ccc(N[C@H](CCN5CCOCC5)CSc5ccccc5)c(S(=O)(=O)C(F)(F)F)c4)cc3)CC2)C1 [Navitoclax] | 50 | very strong targeted toxicity related to BCL-XL | – | –
– | – | – | COC1=CC(c2cc3ccccc3[nH]2)=N/C1=C\c1[nH]c(C)cc1C [Obatoclax] | – | – | strong neurotoxicity | –
– | – | 5.5 | CC1(C)CCC(CN2CCN(c3ccc(C(=O)NS(=O)(=O)c4ccc(NCC5CCOCC5)c([N+](=O)[O-])c4)c(Oc4cnc5[nH]ccc5c4)c3)CC2)=C(c2ccc(Cl)cc2)C1 [Venetoclax, reference compound] | – | – | – | toxic side effects such as leukopenia and thrombocytopenia, anemia, diarrhea, dizziness, fatigue, susceptibility to infection
